Test results published in patent publication US6846845B2, “Heat shock protein inducer” (Eisai Co., Ltd., priority 2002, dated 2005).

Key:
Type in all cases: in vivo, rat
PKC (α, β, γ and ε) = assay: Translocation of PKC isoforms α, β, γ and ε in particulate and cytosolic heart fractions (Western immunoblotting); settings: 24 h after GGA 200 mg/kg oral or vehicle; chelerythrine 5 mg/kg i.v. pretreatment, FIG. 10
HSP70 = assay: Effect of chelerythrine pretreatment on GGA-induced HSP70 expression in the heart (Western immunoblotting), Example 2; settings: 24 h after GGA 200 mg/kg oral or vehicle; chelerythrine 5 mg/kg i.v. pretreatment, FIG. 8
Method: (§1) Male Sprague-Dawley rats (220-250 g) were used. GGA, as an emulsion with 5% gum arabic and 0.008% tocopherol, was given orally at a dose of 200 mg/kg. Rats were classified into 4 groups. FIG. 7 is a diagrammatic representation of experimental protocol. […] Twenty-four hours after oral administration of GGA or vehicle, rats were anesthetized (sodium pentobarbital, 50 mg/kg IP) and heparinized (500 IU/kg IP). Hearts were excised, immediately frozen in liquid nitrogen, and stored at −70° C. until use for Western blot analysis (n=4 for each group). […]
(§2) To analyze the expression of HSP70, the frozen heart samples were homogenized with SDS sample buffer (pH 6.8, 20% glycerol, 6% SDS, 0.12M Tris), centrifuged and boiled (Maloyan A, Palmon A, Horowitz M. Heat acclimation increases the basal HSP70 level and alters its production dynamics during heat stress. Am J Physiol. 1999; 276:R1506-R1515.). […] The total protein concentration of heart was quantified by the Bradford method (Bradford MM. A rapid and sensitive method for quantitation of microgram quantities of protein utilizing the principle of protein-dye binding. Anal. Biochem. 1976;72:248-254). […] The proteins were detected by ECL with exposure to Hyperfilm (Amersham Pharmacia). The amount of protein on the immunoblots was quantified using National Institutes of Health image software. […]

PKCδ = assay: Translocation of PKCδ in particulate and cytosolic heart fractions (Western immunoblotting); settings: 24 h after GGA 200 mg/kg oral or vehicle; chelerythrine 5 mg/kg i.v. pretreatment, FIG. 10
[1] = test system: heat shock factor 1 (HSF1); assay: HSF1 phosphorylation and translocation in cytosolic and nuclear heart fractions (Western immunoblotting); settings: 24 h after GGA 200 mg/kg oral or vehicle; chelerythrine 5 mg/kg i.v. pretreatment, FIG. 9
Method: as §1, §2

isolated perfused heart = assay: Isolated perfused heart experiments (Langendorff, 20 min no-flow global ischemia, 30 min reperfusion), Example 2
Method: Male Sprague-Dawley rats (220-250 g) were used. GGA, as an emulsion with 5% gum arabic and 0.008% tocopherol, was given orally at a dose of 200 mg/kg. Rats were classified into 4 groups. FIG. 7 is a diagrammatic representation of experimental protocol. […] Twenty-four hours after oral administration of GGA or vehicle, rats were anesthetized (sodium pentobarbital, 50 mg/kg IP) and heparinized (500 IU/kg IP). Hearts were excised, immediately frozen in liquid nitrogen, and stored at −70° C. until use for Western blot analysis (n=4 for each group). To examine the cardiac function during ischemia and reperfusion, hearts of each group were prepared for isolated perfused experiments using Langendorff apparatus (n=7-9 for each group, FIG. 7).
Twenty-four hours after administration-of 200 mg/kg of GGA or vehicle, rats of 4 groups were heparinized (500 IU/kg, IP) and anesthetized with sodium pentobarbital (50 mg/kg, IP). Each heart was isolated and perfused retrogradely using the Langendorff method with Krebs-Henseleit buffer (pH 7.4, [in mM] 118 NaCl, 4.7 KCl, 2.5 CaCl2, 1.2 MgSO4, 1.2 KH2PO4, 25.0 Na2HCO3, 11.0 glucose) equilibrated with 95% O2-5% CO2 gas mixture at 36.5° C. at a constant pressure of 75 mm Hg. A water-filled latex balloon was inserted through the mitral orifice into the left ventricle (LV) and the LV end-diastolic pressure (LVEDP) was adjusted to 0-5 mm Hg. During the initial 10 min of constant pressure perfusion, the perfusion flow rate was determined for each heart, which was then perfused at a determined perfusion rate using a microtube pump while the heart was covered with water-jacketed glassware and the relative humidity maintained at 90% or more. Normothermic no-flow global ischemia was initiated for 20 min, followed by reperfusion for 30 min. The coronary effluent during the 30 min of reperfusion period was collected for measurement of creatine kinase content (released CK).
LV pressure was monitored using a pressure transducer to obtain the peak positive and negative first derivatives of LV pressure (dP/dtmax and dP/dtmin). […] Coronary perfusion pressure (CPP) was defined as the hydraulic pressure measured at the level of aortic cannulation. LV pressure, CPP and electrocardiogram were continuously recorded on a polygraph recorder (WS-681G, Nihon Kohden) and stored on a PCM data recorder (RD-111T, TEAC) for later analysis.
Data are expressed as mean ±SEM. Serial changes in LVDP, LVEDP, CPP, and dP/dt were analyzed by two-way analysis of variance (ANOVA) followed by the Bonferroni/Dunn test, unless otherwise specified. Comparisons among groups with respect to the hemodynamic parameters at baseline and the ratio of released CK to ventricular weight were analyzed by one-way ANOVA followed by the Bonferroni/Dunn test. […]

## COc1ccc2c(c[n+](C)c3c4cc5c(cc4ccc23)OCO5)c1OC [chelerythrine, reference compound]
PKC (α, β, γ and ε)
  PKC isoforms α, β, γ and ε in cytosolic and particulate fractions: not influenced
HSP70
  HSP70 expression in the heart (relative density to control group): did not influence
PKCδ
  PKCδ in the particulate fraction / particulate/cytosol ratio versus CNT group: did not influence
[1]
  amount of phosphorylated form of HSF1 in the nuclear fraction: did not significantly influence
Isolated perfused heart; 30-min reperfusion period after 20 min ischemia, FIG. 12
  released creatine kinase (CK) relative to ventricular weight: similar
Isolated perfused heart; 20 min no-flow global ischemia, 30 min reperfusion, FIG. 11
  recovery of LVDP, LVEDP and dP/dt on reperfusion versus CNT group: similar
